Assay results reported in PubChem BioAssay (NCI).
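1) Cells in 96-well plates. 2) Compound, 48 h, 5 concentrations. 3) Linear interpolation between surrounding doses. 4) Unreached endpoint = highest concentration. TGI marks complete inhibition of growth.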

What was measured:
Test in all cases: NCI anticancer screen, dose series, 48 h
[1] = system: NCI-H522 lung
[2] = system: 786-0 renal
[3] = system: IGROV1 ovarian
[4] = system: HCC-2998 colon
[5] = system: OVCAR-4 ovarian
[6] = system: CCRF-CEM leukemia
[7] = system: HS 578T breast
[8] = system: SK-MEL-2 melanoma
[9] = system: SF-268 CNS
[10] = system: CAKI-1 renal
[11] = system: UO-31 renal
[12] = system: OVCAR-8 ovarian
[13] = system: A498 renal
[14] = system: U251 CNS
[15] = system: RXF 393 renal
[16] = system: TK-10 renal
[17] = system: M14 melanoma
[18] = system: HCT-15 colon
[19] = system: SR leukemia
[20] = system: MALME-3M melanoma
[21] = system: K-562 leukemia
[22] = system: SK-MEL-28 melanoma
[23] = system: DU-145 prostate
[24] = system: UACC-62 melanoma
[25] = system: MDA-MB-435
[26] = system: OVCAR-5 ovarian
[27] = system: SN12C renal
[28] = system: A549 NSCLC
[29] = system: RPMI-8226 leukemia
[30] = system: MDA-MB-231 breast
[31] = system: EKVX NSCLC
[32] = system: NCI-H23 lung
[33] = system: SNB-75 CNS
[34] = system: MOLT-4 leukemia
[35] = system: MCF7 breast
[36] = system: PC-3 prostate
[37] = system: SF-295 CNS
[38] = system: HL-60(TB) leukemia
[39] = system: SK-MEL-5 melanoma
[40] = system: SW-620 colon
[41] = system: SK-OV-3 ovarian
[42] = system: KM12 colon
[43] = system: SF-539 CNS
[44] = system: HT29 colon
[45] = system: HCT-116 colon
[46] = system: OVCAR-3 ovarian
[47] = system: UACC-257 melanoma
[48] = system: NCI-H226 lung
[49] = system: BT-549 breast
[50] = system: MDA-N
[51] = system: HOP-92 NSCLC
[52] = system: T-47D breast
[53] = system: COLO 205 colon
[54] = system: ACHN renal
[55] = system: NCI/ADR-RES ovarian
[56] = system: SNB-19 CNS
[57] = system: NCI-H460 lung
[58] = system: HOP-62 NSCLC

## Cc1c(S(=O)(=O)c2ccccc2)c(N)n(CCN(C)C)c1C
[1]
  TGI: > 100 µM
[2]
  TGI: > 100 µM
[3]
  TGI: > 100 µM
[4]
  TGI: > 100000 nM
[5]
  TGI: > 100000 nM
[6]
  TGI: > 100 µM
[7]
  TGI: > 100000 nM
[8]
  TGI: > 100000 nM
[9]
  TGI: > 100 µM
[10]
  TGI: > 100 µM
[11]
  TGI: > 100000 nM
[12]
  TGI: > 100 µM
[13]
  TGI: > 100 µM
[14]
  TGI: > 100000 nM
[15]
  TGI: > 100000 nM
[16]
  TGI: > 100 µM
[17]
  TGI: > 100000 nM
[18]
  TGI: > 100 µM
[19]
  TGI: > 100000 nM
[20]
  TGI: > 100000 nM
[21]
  TGI: > 100 µM
[22]
  TGI: > 100 µM
[23]
  TGI: > 100000 nM
[24]
  TGI: > 100000 nM
[25]
  TGI: > 100000 nM
[26]
  TGI: > 100000 nM
[27]
  TGI: > 100000 nM
[28]
  TGI: > 100 µM
[29]
  TGI: > 100 µM
[30]
  TGI: > 100 µM
[31]
  TGI: > 100 µM
[32]
  TGI: > 100 µM
[33]
  TGI: > 100000 nM
[34]
  TGI: > 100 µM
[35]
  TGI: > 100000 nM
[36]
  TGI: > 100 µM
[37]
  TGI: > 100000 nM
[38]
  TGI: > 100000 nM
[39]
  TGI: > 100000 nM
[40]
  TGI: > 100 µM
[41]
  TGI: > 100 µM
[42]
  TGI: > 100 µM
[43]
  TGI: > 100000 nM
[44]
  TGI: > 100 µM
[45]
  TGI: > 100 µM
[46]
  TGI: > 100000 nM
[47]
  TGI: > 100000 nM
[48]
  TGI: > 100000 nM
[49]
  TGI: > 100000 nM
[50]
  TGI: > 100000 nM
[51]
  TGI: > 100 µM
[52]
  TGI: > 100 µM
[53]
  TGI: > 100 µM
[54]
  TGI: > 100000 nM
[55]
  TGI: > 100 µM
[56]
  TGI: > 100 µM
[57]
  TGI: > 100 µM

## CCOC(=O)c1nc2c(nc1C(=O)OCC)C(=O)c1ccccc1C2=O
[1]
  TGI: 4.23 µM
[2]
  TGI: 6.33 µM
[3]
  TGI: 23.8 µM
[4]
  TGI: 2970 nM
[5]
  TGI: 1950 nM
[6]
  TGI: > 100 µM
[7]
  TGI: 766 nM
[8]
  TGI: 1500 nM
[9]
  TGI: 7.62 µM
[10]
  TGI: 3.26 µM
[11]
  TGI: 1180 nM
[12]
  TGI: 6.56 µM
[13]
  TGI: 4.38 µM
[14]
  TGI: 2740 nM
[15]
  TGI: 2810 nM
[16]
  TGI: 8.83 µM
[17]
  TGI: 1550 nM
[18]
  TGI: > 34.4 µM
[19]
  TGI: 680 nM
[20]
  TGI: 362 nM
[21]
  TGI: 4.46 µM
[22]
  TGI: 3.01 µM
[23]
  TGI: 2480 nM
[24]
  TGI: 956 nM
[25]
  TGI: 804 nM
[26]
  TGI: 2240 nM
[27]
  TGI: 400 nM
[28]
  TGI: 9.47 µM
[29]
  TGI: 6.87 µM
[30]
  TGI: 8.41 µM
[31]
  TGI: 3.5 µM
[33]
  TGI: 2120 nM
[34]
  TGI: 6.31 µM
[35]
  TGI: 1170 nM
[36]
  TGI: 11.2 µM
[37]
  TGI: 1550 nM
[38]
  TGI: 1550 nM
[58]
  TGI: 3.78 µM
[39]
  TGI: 2190 nM
[40]
  TGI: 3.77 µM
[41]
  TGI: 5.97 µM
[42]
  TGI: 14.7 µM
[43]
  TGI: 1710 nM
[44]
  TGI: 9.06 µM
[45]
  TGI: 4.25 µM
[46]
  TGI: 2810 nM
[47]
  TGI: 1280 nM
[48]
  TGI: 1500 nM
[49]
  TGI: 2760 nM
[50]
  TGI: 796 nM
[51]
  TGI: 33.6 µM
[52]
  TGI: > 62.8 µM
[53]
  TGI: 4.36 µM
[54]
  TGI: 2020 nM
[55]
  TGI: > 35.1 µM
[56]
  TGI: 3.59 µM
[57]
  TGI: 3.73 µM
